Experimental findings from ChEMBL document CHEMBL5465560, “Selectivity Literature for EUbOPEN Chemogenomic Library” (2024) are described below.

Experiment [1] addresses T1, Tyrosine-protein kinase receptor TYRO3 (Homo sapiens) (UniProt Q06418).
T1 sequence (whole entry): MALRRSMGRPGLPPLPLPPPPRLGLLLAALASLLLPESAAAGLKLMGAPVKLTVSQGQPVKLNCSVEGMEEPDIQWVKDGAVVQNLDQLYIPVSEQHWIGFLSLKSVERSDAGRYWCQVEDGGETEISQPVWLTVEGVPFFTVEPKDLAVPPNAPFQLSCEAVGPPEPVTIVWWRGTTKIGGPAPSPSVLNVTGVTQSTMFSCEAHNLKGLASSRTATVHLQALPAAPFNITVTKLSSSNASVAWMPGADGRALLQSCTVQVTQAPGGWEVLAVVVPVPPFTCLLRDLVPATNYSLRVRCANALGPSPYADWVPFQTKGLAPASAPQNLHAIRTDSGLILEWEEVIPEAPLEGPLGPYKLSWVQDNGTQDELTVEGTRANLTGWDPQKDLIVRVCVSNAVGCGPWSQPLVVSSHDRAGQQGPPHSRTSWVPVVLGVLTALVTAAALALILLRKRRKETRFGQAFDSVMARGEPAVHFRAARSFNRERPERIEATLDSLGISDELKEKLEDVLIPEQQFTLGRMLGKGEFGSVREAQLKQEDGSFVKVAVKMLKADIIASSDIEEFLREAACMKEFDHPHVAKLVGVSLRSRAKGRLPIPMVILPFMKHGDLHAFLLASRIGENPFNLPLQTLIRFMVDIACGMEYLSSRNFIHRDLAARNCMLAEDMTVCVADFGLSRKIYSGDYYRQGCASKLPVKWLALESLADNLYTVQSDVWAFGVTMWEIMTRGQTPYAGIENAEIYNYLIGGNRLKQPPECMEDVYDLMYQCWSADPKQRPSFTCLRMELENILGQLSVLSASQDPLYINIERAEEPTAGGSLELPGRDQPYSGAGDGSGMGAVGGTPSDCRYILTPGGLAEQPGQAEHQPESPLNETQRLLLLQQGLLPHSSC
The experiment can be described thus: Selectivity interaction (KinomeScan (DiscoverX)) EUB0001079a TYRO3. The following applies: at 1 µM.

Experiment [2] addresses Fibroblast growth factor receptor 1 (Homo sapiens, UniProt P11362). The experiment can be described thus: Selectivity interaction (KinomeScan (DiscoverX)) EUB0001619a FGFR1. Conditions: at 1 µM.
In experiment [3] the target is Tyrosine-protein kinase JAK2 (Homo sapiens, UniProt O60674). Put plainly: Selectivity interaction (ActivX KiNativ screen (ex vivo kinase selectivity in human PBMCs)) EUB0001619a JAK2. Conditions: PBMC, at 1 µM. In kind it is cell-based.
Chain of Tyrosine-protein kinase JAK2 (O60674 whole entry): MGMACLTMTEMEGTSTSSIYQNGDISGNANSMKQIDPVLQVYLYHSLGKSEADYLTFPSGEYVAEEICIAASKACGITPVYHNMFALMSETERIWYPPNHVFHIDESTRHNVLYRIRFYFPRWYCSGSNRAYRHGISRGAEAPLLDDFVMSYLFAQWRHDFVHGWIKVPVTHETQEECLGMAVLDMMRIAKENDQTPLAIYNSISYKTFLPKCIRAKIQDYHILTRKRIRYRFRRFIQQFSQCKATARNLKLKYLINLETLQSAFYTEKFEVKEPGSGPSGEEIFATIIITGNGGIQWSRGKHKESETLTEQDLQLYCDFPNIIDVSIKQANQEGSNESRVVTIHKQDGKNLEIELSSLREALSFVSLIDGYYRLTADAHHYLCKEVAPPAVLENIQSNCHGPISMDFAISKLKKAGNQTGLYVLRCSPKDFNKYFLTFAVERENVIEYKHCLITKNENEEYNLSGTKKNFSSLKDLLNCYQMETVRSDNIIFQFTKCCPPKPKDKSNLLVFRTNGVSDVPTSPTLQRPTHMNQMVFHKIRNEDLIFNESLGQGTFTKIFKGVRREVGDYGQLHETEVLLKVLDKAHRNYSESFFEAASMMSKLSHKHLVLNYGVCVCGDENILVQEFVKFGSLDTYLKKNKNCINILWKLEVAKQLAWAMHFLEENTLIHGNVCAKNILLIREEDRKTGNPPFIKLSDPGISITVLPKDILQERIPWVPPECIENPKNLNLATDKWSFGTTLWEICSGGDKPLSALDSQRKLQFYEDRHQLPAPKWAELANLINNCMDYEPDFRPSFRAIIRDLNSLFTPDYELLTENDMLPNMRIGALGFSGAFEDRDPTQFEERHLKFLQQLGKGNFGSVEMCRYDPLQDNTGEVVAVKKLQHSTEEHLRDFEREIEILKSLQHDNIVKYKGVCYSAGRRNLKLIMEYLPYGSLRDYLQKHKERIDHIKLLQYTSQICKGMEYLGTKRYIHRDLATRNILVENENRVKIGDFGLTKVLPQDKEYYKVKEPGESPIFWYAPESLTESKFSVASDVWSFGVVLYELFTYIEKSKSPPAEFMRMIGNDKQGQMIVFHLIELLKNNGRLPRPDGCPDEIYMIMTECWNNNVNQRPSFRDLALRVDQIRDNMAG
Experiment [4] concerns the target Tyrosine-protein kinase BTK (Homo sapiens, UniProt Q06187). Put plainly: Selectivity interaction (ActivX KiNativ screen (kinase selectivity in THP-1 cell lysates)) EUB0000639a BTK. In kind it is subcellular. Conditions: lysate, at 0.01 µM.
In experiment [5] the target is High affinity nerve growth factor receptor (Homo sapiens, UniProt P04629). The experiment can be described thus: Selectivity interaction (Millipore kinase profiler) EUB0000124b NTRK1. Conditions: at 10 µM.
The target of experiment [6] is Tyrosine-protein kinase Lyn (Homo sapiens, UniProt P07948).
Chain of Tyrosine-protein kinase Lyn (P07948 whole entry): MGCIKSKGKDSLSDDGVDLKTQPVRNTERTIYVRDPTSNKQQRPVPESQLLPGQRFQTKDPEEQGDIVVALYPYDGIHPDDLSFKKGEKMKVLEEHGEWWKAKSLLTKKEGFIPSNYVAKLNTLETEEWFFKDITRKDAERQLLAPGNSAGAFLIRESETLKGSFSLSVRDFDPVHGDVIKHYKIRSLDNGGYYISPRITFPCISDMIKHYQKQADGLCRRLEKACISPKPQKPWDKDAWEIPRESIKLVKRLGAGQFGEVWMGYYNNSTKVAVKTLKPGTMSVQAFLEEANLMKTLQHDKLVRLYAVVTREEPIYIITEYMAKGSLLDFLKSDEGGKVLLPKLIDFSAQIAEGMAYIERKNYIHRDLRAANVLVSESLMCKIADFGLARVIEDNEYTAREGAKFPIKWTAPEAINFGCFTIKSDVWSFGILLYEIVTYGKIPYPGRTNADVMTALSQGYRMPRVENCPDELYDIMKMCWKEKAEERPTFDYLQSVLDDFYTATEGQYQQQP
Experiment [7] deals with NT-3 growth factor receptor (Homo sapiens, UniProt Q16288). The experiment can be described thus: Selectivity interaction (ProQinase) EUB0000171b NTRK3.
Chain of NT-3 growth factor receptor (Q16288 32-839 limits assumed): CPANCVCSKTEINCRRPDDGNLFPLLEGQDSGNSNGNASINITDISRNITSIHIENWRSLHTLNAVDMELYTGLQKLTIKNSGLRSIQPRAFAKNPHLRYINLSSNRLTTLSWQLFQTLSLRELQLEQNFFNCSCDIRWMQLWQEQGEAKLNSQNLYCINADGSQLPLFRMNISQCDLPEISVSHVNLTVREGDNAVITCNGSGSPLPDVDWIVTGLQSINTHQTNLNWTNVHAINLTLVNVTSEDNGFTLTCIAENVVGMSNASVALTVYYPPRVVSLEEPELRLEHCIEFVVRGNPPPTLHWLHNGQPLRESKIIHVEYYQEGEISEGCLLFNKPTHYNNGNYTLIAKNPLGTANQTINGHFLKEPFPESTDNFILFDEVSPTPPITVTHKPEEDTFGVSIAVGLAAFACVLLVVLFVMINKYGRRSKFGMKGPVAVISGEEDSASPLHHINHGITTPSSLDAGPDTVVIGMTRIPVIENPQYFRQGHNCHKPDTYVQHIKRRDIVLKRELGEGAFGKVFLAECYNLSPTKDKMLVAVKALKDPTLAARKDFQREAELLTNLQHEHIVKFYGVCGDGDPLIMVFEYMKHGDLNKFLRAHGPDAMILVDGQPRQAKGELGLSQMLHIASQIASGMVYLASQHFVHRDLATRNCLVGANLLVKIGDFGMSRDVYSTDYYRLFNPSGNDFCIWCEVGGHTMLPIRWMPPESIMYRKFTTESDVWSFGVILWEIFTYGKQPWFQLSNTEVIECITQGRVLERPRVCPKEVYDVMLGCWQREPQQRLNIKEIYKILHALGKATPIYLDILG
Experiment [8] concerns the target T2, Mitogen-activated protein kinase kinase kinase 15 (Homo sapiens) (UniProt Q6ZN16).
T2 sequence (whole entry): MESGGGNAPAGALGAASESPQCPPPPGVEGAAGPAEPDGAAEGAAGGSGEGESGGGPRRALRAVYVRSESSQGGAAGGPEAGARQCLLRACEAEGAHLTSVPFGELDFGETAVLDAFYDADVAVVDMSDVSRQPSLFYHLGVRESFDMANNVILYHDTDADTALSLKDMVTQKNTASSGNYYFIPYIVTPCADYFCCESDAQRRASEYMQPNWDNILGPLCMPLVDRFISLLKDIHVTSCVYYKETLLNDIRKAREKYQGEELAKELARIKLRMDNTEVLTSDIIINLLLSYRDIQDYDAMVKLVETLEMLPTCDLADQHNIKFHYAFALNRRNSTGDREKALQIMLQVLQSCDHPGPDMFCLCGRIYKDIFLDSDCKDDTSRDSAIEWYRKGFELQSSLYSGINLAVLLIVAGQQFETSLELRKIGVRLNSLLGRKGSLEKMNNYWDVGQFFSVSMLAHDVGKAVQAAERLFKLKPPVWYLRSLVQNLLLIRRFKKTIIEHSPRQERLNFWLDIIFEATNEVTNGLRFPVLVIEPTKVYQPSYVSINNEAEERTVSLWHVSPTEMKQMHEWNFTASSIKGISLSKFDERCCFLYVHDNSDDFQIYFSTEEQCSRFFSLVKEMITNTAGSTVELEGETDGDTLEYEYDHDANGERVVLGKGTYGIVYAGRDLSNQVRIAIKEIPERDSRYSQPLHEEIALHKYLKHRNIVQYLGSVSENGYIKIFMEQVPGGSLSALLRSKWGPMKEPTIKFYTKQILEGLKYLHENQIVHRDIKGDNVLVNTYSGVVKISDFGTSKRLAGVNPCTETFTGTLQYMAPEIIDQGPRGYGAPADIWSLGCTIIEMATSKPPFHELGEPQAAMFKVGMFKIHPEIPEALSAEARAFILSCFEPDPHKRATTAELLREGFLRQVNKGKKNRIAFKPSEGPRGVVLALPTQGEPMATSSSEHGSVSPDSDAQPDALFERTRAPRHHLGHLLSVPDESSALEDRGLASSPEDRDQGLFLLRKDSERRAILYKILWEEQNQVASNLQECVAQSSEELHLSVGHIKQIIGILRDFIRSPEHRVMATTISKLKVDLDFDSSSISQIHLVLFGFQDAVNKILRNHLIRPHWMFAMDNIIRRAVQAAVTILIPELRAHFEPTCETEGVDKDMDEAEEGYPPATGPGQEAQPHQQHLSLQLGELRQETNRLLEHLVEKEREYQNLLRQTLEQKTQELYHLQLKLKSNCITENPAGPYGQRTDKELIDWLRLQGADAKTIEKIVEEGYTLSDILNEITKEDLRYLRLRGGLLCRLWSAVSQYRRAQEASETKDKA
The experiment can be described thus: Selectivity interaction (KinomeScan (DiscoverX)) EUB0000618a MAP3K15. The following applies: at 10 µM.

For experiment [9], the target named is Serine/threonine-protein kinase PLK3 (Homo sapiens, UniProt Q9H4B4). Put plainly: Selectivity interaction (KinomeScan (DiscoverX)) EUB0000618a PLK3. The following applies: at 10 µM.
Chain of Serine/threonine-protein kinase PLK3 (Q9H4B4 whole entry, looked up): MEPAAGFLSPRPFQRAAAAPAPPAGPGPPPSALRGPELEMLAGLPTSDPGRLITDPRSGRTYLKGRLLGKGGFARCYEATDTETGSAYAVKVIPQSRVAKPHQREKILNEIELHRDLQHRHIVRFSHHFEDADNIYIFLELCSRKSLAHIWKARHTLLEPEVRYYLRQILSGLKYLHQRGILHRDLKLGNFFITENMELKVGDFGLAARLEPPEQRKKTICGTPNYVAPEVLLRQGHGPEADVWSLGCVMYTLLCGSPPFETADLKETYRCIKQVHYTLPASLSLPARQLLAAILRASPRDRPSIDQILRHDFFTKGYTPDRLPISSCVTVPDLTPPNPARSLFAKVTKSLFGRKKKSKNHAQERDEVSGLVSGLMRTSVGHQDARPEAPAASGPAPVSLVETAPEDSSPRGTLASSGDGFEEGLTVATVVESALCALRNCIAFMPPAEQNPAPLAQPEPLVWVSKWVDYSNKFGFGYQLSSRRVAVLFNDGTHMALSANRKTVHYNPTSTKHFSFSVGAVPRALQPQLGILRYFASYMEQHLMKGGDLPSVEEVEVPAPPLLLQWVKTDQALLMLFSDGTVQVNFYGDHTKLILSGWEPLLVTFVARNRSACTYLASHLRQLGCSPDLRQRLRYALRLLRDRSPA

Chain of Fibroblast growth factor receptor 1 (P11362 22-822 limits assumed): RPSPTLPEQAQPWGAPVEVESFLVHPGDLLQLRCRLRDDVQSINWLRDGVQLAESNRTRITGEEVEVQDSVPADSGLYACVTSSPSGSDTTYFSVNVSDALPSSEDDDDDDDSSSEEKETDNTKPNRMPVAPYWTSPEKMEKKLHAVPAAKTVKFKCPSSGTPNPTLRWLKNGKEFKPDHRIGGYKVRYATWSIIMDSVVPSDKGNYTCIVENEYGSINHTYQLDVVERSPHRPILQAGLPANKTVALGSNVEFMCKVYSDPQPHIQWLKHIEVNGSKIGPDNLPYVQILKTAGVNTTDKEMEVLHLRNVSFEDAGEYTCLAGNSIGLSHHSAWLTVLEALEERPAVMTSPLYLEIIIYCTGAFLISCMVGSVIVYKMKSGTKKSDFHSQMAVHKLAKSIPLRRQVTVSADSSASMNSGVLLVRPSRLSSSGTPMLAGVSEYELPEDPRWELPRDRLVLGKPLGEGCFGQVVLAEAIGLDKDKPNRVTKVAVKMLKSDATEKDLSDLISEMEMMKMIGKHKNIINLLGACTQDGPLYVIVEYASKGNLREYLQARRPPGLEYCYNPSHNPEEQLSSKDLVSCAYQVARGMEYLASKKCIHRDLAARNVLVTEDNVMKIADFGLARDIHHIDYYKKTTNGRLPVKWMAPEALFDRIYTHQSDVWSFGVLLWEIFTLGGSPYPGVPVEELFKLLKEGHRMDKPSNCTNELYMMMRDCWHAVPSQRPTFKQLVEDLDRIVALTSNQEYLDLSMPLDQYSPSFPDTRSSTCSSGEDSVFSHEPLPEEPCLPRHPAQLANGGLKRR
Chain of Tyrosine-protein kinase BTK (Q06187 whole entry): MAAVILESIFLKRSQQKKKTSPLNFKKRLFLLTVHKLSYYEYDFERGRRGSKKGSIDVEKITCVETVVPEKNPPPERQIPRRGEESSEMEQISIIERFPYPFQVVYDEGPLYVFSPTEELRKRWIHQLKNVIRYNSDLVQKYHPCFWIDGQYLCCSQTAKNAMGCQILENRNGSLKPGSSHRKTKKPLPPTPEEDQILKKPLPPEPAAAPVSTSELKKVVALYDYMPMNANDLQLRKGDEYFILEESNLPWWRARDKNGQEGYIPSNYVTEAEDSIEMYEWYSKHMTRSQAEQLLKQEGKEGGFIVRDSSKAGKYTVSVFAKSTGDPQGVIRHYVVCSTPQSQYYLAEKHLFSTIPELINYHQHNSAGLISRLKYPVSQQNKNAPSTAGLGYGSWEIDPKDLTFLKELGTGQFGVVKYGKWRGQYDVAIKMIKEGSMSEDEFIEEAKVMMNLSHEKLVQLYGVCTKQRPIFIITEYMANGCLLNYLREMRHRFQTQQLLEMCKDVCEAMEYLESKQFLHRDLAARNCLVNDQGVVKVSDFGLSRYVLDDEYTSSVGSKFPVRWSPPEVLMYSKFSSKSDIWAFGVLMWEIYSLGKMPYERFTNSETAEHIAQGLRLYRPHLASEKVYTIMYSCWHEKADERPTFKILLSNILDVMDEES

In [1], `Nc1cnc(N2CCc3cc(S(=O)(=O)Nc4c(F)cc(Cl)cc4F)cc(N4CCCC4=O)c32)nc1` [TP-020n] had a % of control of 100%.

With `N#Cc1cccc(-c2c[nH]c3ncnc(N4CCOCC4)c23)c1`, the % of control in experiment [2] worked out at 100%. The % of inhibition in experiment [3] worked out at 17%.

As for `CC[C@@H]1[C@H](F)C(=O)N[C@@H]1COc1nccc2cc(C(N)=O)c(OC)cc12` [ZIMLOVISERTIB], the % of inhibition in experiment [4] is -4.4%.

As to `CC(=O)Nc1cccc(-n2c(=O)n(C3CC3)c(=O)c3c(Nc4ccc(I)cc4F)n(C)c(=O)c(C)c32)c1`, in experiment [5], the % of control came out at 59%.

In experiment [6], `CCc1cccc(CC)c1NC(=O)c1nn(C)c2c1CCc1cnc(Nc3ccc(C(=O)NC4CCN(C)CC4)cc3OC(F)(F)F)nc1-2` came in with an IC50 of over 10 µM.

For the compound `C=CC(=O)Nc1cccc(C(=O)Nc2ccc(Nc3cc(-c4[nH]c(SC)nc4C)ccn3)cc2)c1`, the results for the % of control in experiment [7] (at 1 µM) and in [7] (at 5 µM) were 99% and 79%, respectively.

Take `O[C@H]1CC[C@H](Nc2ncc3nc(Nc4c(F)cc(F)cc4F)n([C@H]4CCOC4)c3n2)CC1`: the % of control in experiment [8] and in experiment [9] was 100% in each case.
